Assay results taken from US7962204B2 (priority 2001, dated 2011).

Assays:
[1] = system: patients with alpha frequency deficits / theta excess; design: species or system human; settings: in vivo
[2] = system: patients with various DSM diagnoses; settings: human, in vivo
[3] = system: behaviorally-diagnosed psychiatric conditions (DSM categories); design: species or system human; settings: in vivo;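 on use code of agent in 301.7 Antisocial Personality Disorder: N marks novel agent found effective in subject subgroups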;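 on use code of agent in 301.83 Borderline Personality Disorder: N marks novel agent found effective in subject subgroups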;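 on use in 307.50 Eating Disorder NOS: N marks novel agent found effective in subject subgroups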;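 on use in 307.51 Bulimia Nervosa: N marks novel agent found effective in subject subgroups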;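 on use in 313.81 Oppositional Defiant Disorder: N marks novel agent found effective in subject subgroups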

Molecule: CC(NC(C)(C)C)C(=O)c1cccc(Cl)c1 (stereo not shown) [Bupropion]
- clinical response of patients 1-4 [1]: responded positively

Molecule: C[C@H](N)Cc1ccccc1 [D-amphetamine]
- false negatives [2]: 5 patients

Molecule: NC(=O)CC[C@H](N)C(=O)O [GLUTAMINE, reference compound]
- agent found effective in 299.00 Autistic Disorder [3]: N
- agent found effective in 300.00 Anxiety Disorder NOS [3]: N
- agent found effective in 300.02 Generalized Anxiety Disorder [3]: N
- agent found effective in 300.22 Agoraphobia Without History of Panic Disorder [3]: N
- agent found effective in 300.23 Social Phobia [3]: N
- agent found effective in 300.29 Specific Phobia [3]: N
- agent found effective in 300.3 Obsessive-Compulsive Disorder [3]: N
- agent found effective in 309.81 Posttraumatic Stress Disorder [3]: N
- agent found effective in Panic Disorder [3]: N
- use in Dementia of the Alzheimer's Type [3]: N
- clinical response of granddaughter [1]: successfully treated

Molecule: N[C@@H](Cc1ccc(O)cc1)C(=O)O [L-tyrosine]
- clinical response of granddaughter [1]: successfully treated

Molecule: NC1=NC(=O)C(c2ccccc2)O1 (stereo not shown) [PEMOLINE]
- use code of agent in 294.8 Amnestic Disorder [3]: N
- use code of agent in 294.9 Cognitive Disorder NOS [3]: N
- use code of agent in 296.90 Mood Disorder NOS [3]: N
- use code of agent in 300.4 Dysthymic Disorder [3]: N
- use code of agent in 301.13 Cyclothymic Disorder [3]: N
- use code of agent in 307.1 Anorexia Nervosa [3]: N
- use code of agent in 307.50 Eating Disorder NOS [3]: N
- use code of agent in 307.51 Bulimia Nervosa [3]: N
- use code of agent in 312.30 Impulse-Control Disorder NOS [3]: N
- use code of agent in 312.31 Pathological Gambling [3]: N
- use code of agent in 312.8 Conduct Disorder [3]: N
- use code of agent in 313.81 Oppositional Defiant Disorder [3]: N
- use code of agent in 315.9 Learning Disorder NOS [3]: N
- use of agent in DSM category (C/N code) [3]: N

Molecule: NNCCc1ccccc1 [PHENALZINE]
- use code of agent in 301.20 Schizoid Personality Disorder [3]: N
- use code of agent in 301.4 Obsessive-Compulsive Personality Disorder [3]: N
- use code of agent in 301.50 Histrionic Personality Disorder [3]: N
- use code of agent in 301.6 Dependent Personality Disorder [3]: N
- use code of agent in 301.7 Antisocial Personality Disorder [3]: N
- use code of agent in 301.82 Avoidant Personality Disorder [3]: N
- use code of agent in 301.83 Borderline Personality Disorder [3]: N
- use code of agent in 302.71 Hypoactive Sexual Desire Disorder [3]: N
- use code of agent in 307.42 Primary Insomnia [3]: N
- use code of agent in 311 Depressive Disorder NOS [3]: N
- use code of agent in 316 Psychological Factors Affecting Medical Condition, Atypical Asthma [3]: N
- use code of agent in 316 Psychological Factors Affecting Medical Condition, Neurodermatitis [3]: N
- use code of agent in Bipolar I Disorder [3]: N
- use code of agent in Major Depressive Disorder, Recurrent [3]: N
- use code of agent in Major Depressive Disorder, Single Episode [3]: N
- use in 294.9 Cognitive Disorder NOS [3]: N
- use in 296.89 Bipolar II Disorder [3]: N
- use in 296.90 Mood Disorder NOS [3]: N
- use in 299.80 Pervasive Developmental Disorder NOS [3]: N
- use in 300.00 Anxiety Disorder NOS [3]: N
- use in 300.22 Agoraphobia Without History of Panic Disorder [3]: N
- use in 300.23 Social Phobia [3]: N
- use in 300.29 Specific Phobia [3]: N
- use in 300.3 Obsessive-Compulsive Disorder [3]: N
- use in 300.4 Dysthymic Disorder [3]: N
- use in 301.13 Cyclothymic Disorder [3]: N
- use in 307.1 Anorexia Nervosa [3]: N
- use in 307.50 Eating Disorder NOS [3]: N
- use in 307.51 Bulimia Nervosa [3]: N
- use in 309.21 Separation Anxiety Disorder [3]: N
- use in 309.81 Posttraumatic Stress Disorder [3]: N
- use in 312.31 Pathological Gambling [3]: N
- use in 312.34 Intermittent Explosive Disorder [3]: N
- use in 312.39 Trichotillomania [3]: N
- use in 312.8 Conduct Disorder [3]: N
- use in 313.81 Oppositional Defiant Disorder [3]: N
- use in 315.9 Learning Disorder NOS [3]: N
- use in Attention-Deficit/Hyperactivity Disorder [3]: N
- use in Panic Disorder [3]: N
- use of the agent in the diagnostic category (C = common use; N = novel use from rEEG features) [3]: N

Molecule: CC(C)(N)Cc1ccccc1 [PHENTERMINE]
- use code of agent in 294.9 Cognitive Disorder NOS [3]: N
- use code of agent in 300.4 Dysthymic Disorder [3]: N
- use code of agent in 307.50 Eating Disorder NOS [3]: N
- use code of agent in 312.8 Conduct Disorder [3]: N
- use of agent in DSM category (C/N code) [3]: N

Molecule: N[C@@H](Cc1ccccc1)C(=O)O [PHENYLALANINE, reference compound]
- agent found effective in 299.00 Autistic Disorder [3]: N
- agent found effective in 300.00 Anxiety Disorder NOS [3]: N
- agent found effective in 300.02 Generalized Anxiety Disorder [3]: N
- agent found effective in 300.22 Agoraphobia Without History of Panic Disorder [3]: N
- agent found effective in 300.23 Social Phobia [3]: N
- agent found effective in 300.29 Specific Phobia [3]: N
- agent found effective in 300.3 Obsessive-Compulsive Disorder [3]: N
- agent found effective in 309.81 Posttraumatic Stress Disorder [3]: N
- agent found effective in Panic Disorder [3]: N
- use in Dementia of the Alzheimer's Type [3]: N

Molecule: Cc1nc2n(c(=O)c1CCN1CCC(c3noc4cc(F)ccc34)CC1)CCCC2 [RISPERDONE]
- use in 300.22 Agoraphobia Without History of Panic Disorder [3]: N

Molecule: CC(C)CC(N(C)C)C1(c2ccc(Cl)cc2)CCC1 (stereo not shown) [SILBTRMIN]
- use code of agent in 312.34 Intermittent Explosive Disorder [3]: N
- use in 307.22 Chronic Motor or Vocal Tic Disorder [3]: N
- use of the agent in the diagnostic category (C = common use; N = novel use from rEEG features) [3]: N

Molecule: COC(=O)C(c1ccccc1)C1CCCCN1 (stereo not shown) [SR METHYLPHENIDATE]
- use code of agent in 294.8 Amnestic Disorder [3]: N
- use code of agent in 296.89 Bipolar II Disorder [3]: N
- use code of agent in 312.34 Intermittent Explosive Disorder [3]: N
- use code of agent in Dementia of the Alzheimer's Type [3]: N
- use in 299.80 Pervasive Developmental Disorder NOS [3]: N
- use in 300.00 Anxiety Disorder NOS [3]: N
- use in 300.02 Generalized Anxiety Disorder [3]: N
- use in 300.22 Agoraphobia Without History of Panic Disorder [3]: N
- use in 300.23 Social Phobia [3]: N
- use in 300.29 Specific Phobia [3]: N
- use in 300.3 Obsessive-Compulsive Disorder [3]: N
- use in 307.22 Chronic Motor or Vocal Tic Disorder [3]: N
- use in 307.9 Communication Disorder NOS [3]: N
- use in 309.21 Separation Anxiety Disorder [3]: N
- use in 309.81 Posttraumatic Stress Disorder [3]: N
- use in Panic Disorder [3]: N
- use of agent in DSM category (C/N code) [3]: N
- use of the agent in the diagnostic category (C = common use; N = novel use from rEEG features) [3]: N

Molecule: N[C@@H](Cc1ccc(O)cc1)C(=O)O [TYROSINE]
- use in Dementia of the Alzheimer's Type [3]: N

Molecule: Cc1ccc(-c2nc3ccc(C)cn3c2CC(=O)N(C)C)cc1 [ZOLIPIDEM]
- use of the agent in the diagnostic category (C = common use; N = novel use from rEEG features) [3]: N

Molecule: N=C(N)NC(=O)Cc1c(Cl)cccc1Cl [[…]]
- use code of agent in 316 Psychological Factors Affecting Medical Condition, Hypertensive Disorder NOS [3]: N

Molecule: NC(=O)N1c2ccccc2C=Cc2ccccc21 [carbamazepine]
- clinical response of patients 1-4 [1]: responded positively

Molecule: O=C1Nc2ccc(Cl)cc2C(c2ccccc2Cl)=NC1O (stereo not shown) [lorazepam]
- response of chronic insomnia of patient 4 [1]: only slightly responsive

Molecule: GABA [reference compound]
- agent found effective in 300.00 Anxiety Disorder NOS [3]: N
- agent found effective in 300.02 Generalized Anxiety Disorder [3]: N
- agent found effective in 300.22 Agoraphobia Without History of Panic Disorder [3]: N
- agent found effective in 300.23 Social Phobia [3]: N
- agent found effective in 300.29 Specific Phobia [3]: N
- agent found effective in 300.3 Obsessive-Compulsive Disorder [3]: N
- agent found effective in 309.81 Posttraumatic Stress Disorder [3]: N
- agent found effective in Panic Disorder [3]: N
- use code of agent in 301.4 Obsessive-Compulsive Personality Disorder [3]: N
- use code of agent in 301.7 Antisocial Personality Disorder [3]: N
- use code of agent in 301.82 Avoidant Personality Disorder [3]: N
- use code of agent in 301.83 Borderline Personality Disorder [3]: N
- use code of agent in 307.42 Primary Insomnia [3]: N
- use code of agent in 316 Psychological Factors Affecting Medical Condition, Neurodermatitis [3]: N
- use in 300.00 Anxiety Disorder NOS [3]: N
- use in 300.02 Generalized Anxiety Disorder [3]: N
- use in 300.22 Agoraphobia Without History of Panic Disorder [3]: N
- use in 300.23 Social Phobia [3]: N
- use in 300.29 Specific Phobia [3]: N
- use in 300.3 Obsessive-Compulsive Disorder [3]: N
- use in 307.1 Anorexia Nervosa [3]: N
- use in 307.22 Chronic Motor or Vocal Tic Disorder [3]: N
- use in 307.50 Eating Disorder NOS [3]: N
- use in 307.51 Bulimia Nervosa [3]: N
- use in 309.21 Separation Anxiety Disorder [3]: N
- use in 309.81 Posttraumatic Stress Disorder [3]: N
- use in 313.81 Oppositional Defiant Disorder [3]: N
- use in Panic Disorder [3]: N
- use of the agent in the diagnostic category (C = common use; N = novel use from rEEG features) [3]: N
